Reference: patent publication US20250099431A1, “GLP-1R MODULATING COMPOUNDS” (priority 2020, published 2025)

What was measured:
[1] = Microsomal stability (liver microsomal assay, mixed cofactors); predicted hepatic clearance; assay type: in vitro ADME; details: liver microsomes 1.0 mg protein/mL (+UDPGA +NADPH), 1 μM analyte, 37° C.; scaled with human liver weight and hepatic blood flow 1.3 L/hr/kg
Procedure: Metabolic stability of compounds was assessed using human or rat liver microsomal assays (Corning). In these assays, 10 nL of each analyte at a concentration of 1 mM in 100% DMSO was dispensed into a well of a polypropylene plates using the Echo 550 acoustic liquid dispenser (Labcyte®). Each plate contained 384 wells with a single analyte in each well.
A solution of human (Corning® Gentest™ Human Mixed Pooled Microsomes or rat (Corning® Gentest™ Rat [Sprague-Dawley] Pooled Liver Microsomes) liver microsomes at 2 mg/ml in 100 mM K2HPO4/KH2PO4 at pH 7. 4 was combined with alamethicin from Trichoderma viride (Sigma-Aldrich) 0.0225 mg/ml. The mixture was incubated on ice for 15 minutes. 5 μL of this mixture was added to individual wells following a 15 minute incubation at room temperature and supplemented with 5 μL NADPH Regenerating Solution of cofactors (Corning® Gentest™ UGT Reaction Mix) containing 100 mM K2HPO4/KH2PO4 at pH 7.4, 2.6 mM NADP+, 6.6 mM glucose-6-phosphate, 6.6 mM MgCl2, 0.8 U/mL glucose-6-phosphate dehydrogenase, 0.1 mM sodium citrate, and 6.8 mM uridine diphosphate-glucuronic acid. The final concentration of each analyte compound at the beginning of the reaction was 1 μM. The reactions were incubated at 37° C. and samples were collected at time points of 0, 5, 15, 30, 40, 50, 60, and 70 minutes for further analysis. Background data were collected using reactions without analyte compounds.
Upon collection of the sample time points, samples were quenched with 30 μL of a solution of 72% acetonitrile, 8% methanol, 0.1% formic acid, 19.9% water, and internal standard (IS). Reaction plates were spun in a centrifuge at speed of 4,000 rcf for 30 minutes at 4° C., following a dilution of the 10 μL quenched reaction into 40 μL de-ionized water, yielding assay plates.
Assay plates were analyzed using solid-state extraction coupled with quadrupole time-of-flight mass spectrometer, using Agilent QToF 6530 RapidFire 360 system, with C4 type A solid state cartridges. Analysis was performed in either positive or negative ionization modes. Mobile phases contained 0.1% formic acid in water for loading analytes onto solid state extraction cartridges and 0.1% formic acid in acetonitrile for elution into a mass spectrometer in positive ionization mode, or 0.1% acetic acid in water for loading and 0.1% acetic acid in acetonitrile for extraction in negative ionization mode. Peak-area ratios of integrated counts for individual compounds to IS were plotted as semi-logarithmic chart of log vs time. The initial linear portion of decay was fitted to a linear regression equation to derive the half-time of analyte decay.
Pharmacological parameters for an analyte compound metabolism were calculated using the following equations: […]
wherein concentration refers to the protein concentration (mg/ml) in the reaction.
This scales the in vitro intrinsic clearance up to the value that would be predicted for the entire mass of liver tissue (but with no restriction by blood flow). The value depends upon the size of the liver (species-dependent) and the yield of microsomal protein as appropriate (assumed to be species-independent).
Hepatic clearance will depend upon the inter-relationship of intrinsic clearance and hepatic blood flow and was predicted from in vitro data using a variety of approaches.
The hepatic extraction is reported as the predicted clearance expressed as a proportion of hepatic blood flow.

GLP-1R = GLP-1R (Homo sapiens (Human), UniProt P43220); assay: GLP-1R activation: cAMP increase in CHO cells stably expressing GLP-1R; assay type: cell-based; details: cAMP increase, 10 point dose response, 30 minutes incubation at 37° C., read-out: EC50
Procedure: GLP-1R activation by a compound of the present disclosure was quantified by measuring cAMP increase in CHO cells stably expressing GLP-1R (MultiSpan product #C1267-1a). […] The cells were then incubated overnight at 37° C., 5% CO2. […] 1% BSA (Rockland Immunochemicals product #BSA-1000)). Following the medium change, the cells were incubated for 1 hour at 37° C., 5% CO2. The tested GLP-1 compound was added to the cells in a 10 point dose response followed by a 30 minutes incubation at 37° C., 5% CO2. cAMP concentration increase was then detected using Cisbio's cAMP Gs Dynamic Kit (product #62AM4PEC) according to the manufacturer's protocol. The response was plotted against the log of the agonist concentration and fitted to a sigmoidal equation to determine the EC50.

GLP-1R, sequence (P43220 24-463): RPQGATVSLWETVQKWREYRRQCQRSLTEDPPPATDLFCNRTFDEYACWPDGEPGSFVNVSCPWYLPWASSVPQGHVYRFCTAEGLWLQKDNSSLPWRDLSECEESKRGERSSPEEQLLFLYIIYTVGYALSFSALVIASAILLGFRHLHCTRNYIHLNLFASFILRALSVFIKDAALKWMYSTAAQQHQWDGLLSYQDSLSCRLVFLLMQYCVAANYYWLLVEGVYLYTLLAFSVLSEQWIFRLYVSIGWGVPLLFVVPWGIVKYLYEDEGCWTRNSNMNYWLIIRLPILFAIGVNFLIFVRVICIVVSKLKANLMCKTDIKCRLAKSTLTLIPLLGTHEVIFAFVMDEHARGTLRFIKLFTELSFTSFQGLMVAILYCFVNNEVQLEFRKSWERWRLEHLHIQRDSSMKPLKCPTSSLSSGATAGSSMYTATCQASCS

Compound	Predicted Hepatic Clearance (Pred. Cl.) [1] [mL/min/kg]	EC50 (GLP-1R) [nM]
2-[[4-[2-(5- Chloro-2-pyridyl)- 2-methyl-1,3- benzodioxol-4- yl]triazol-1- yl]methyl]-3-(2- methoxyethyl) bencarboxylic acid [Example 104]	13	3030
COCCn1c(Cc2c(F)cc(-c3cccc4c3OC(C)(c3ccc(Cl)cc3F)O4)cc2F)nc2ccc(C(=O)NS(=O)(=O)C3CC3)cc21 (racemic) [Example 3, 2-(4-(2-(4-chloro-2-fluorophenyl)-2-methylbenzo[d][1, 3]dioxol-4-yl)-2,6-difluorobenzyl)-N-(cyclopropylsulfonyl)-1-(2-methoxyethyl)-1H-benzo[d]imidazole-6-carboxamide]	2	78
COCCn1c(Cc2ccc(-c3cccc4c3OC(c3ccc(C#N)cc3F)O4)cc2F)nc2ccc(C(=O)O)cc21 (single isomer, unassigned) [Example 33, 2-(4-(2-(4-cyano-2-fluorophenyl)benzo [d][1,3]dioxol-4-yl)-2-fluorobenzyl)-1-(2-methoxyethyl)-1H-benzo[d]imidazole-6-carboxylic acid]	2.67	53
COCCn1c(Cc2ccc(-c3cccc4c3OC(c3ccc(C#N)cc3F)O4)cc2F)nc2ccc(C(=O)O)cc21 (single isomer, unassigned) [Example 34]	4.17	350
COCCn1c(Cc2ccc(-c3cccc4c3OC(c3ccccc3)O4)cc2F)nc2ccc(C(=O)O)cc21 (single isomer, unassigned) [Example 35, 2-(2-fluoro-4-(2-phenylbenzo[d][1, 3]dioxol-4-yl)benzyl)-1-(2-methoxyethyl)-1H-benzo[d]imidazole-6-carboxylic acid]	2.83	646
COCCn1c(Cc2ccc(-c3cccc4c3OC(c3ccccc3)O4)cc2F)nc2ccc(C(=O)O)cc21 (single isomer, unassigned) [Example 36, 2-(2-fluoro-4-(2-phenylbenzo[d][1, 3]dioxol-4-yl)benzyl)-1-(2-methoxyethyl)-1H-benzo[d]imidazole-6-carboxylic acid]	8.67	242
COCCn1c(Cc2c(F)cc(-c3cccc4c3OC(c3ccc(C#N)cc3F)O4)cc2F)nc2ccc(C(=O)O)cc21 (single isomer, unassigned) [Example 37, 2-(4-(2-(4-cyano-2-fluorophenyl)benzo [d][1,3]dioxol-4-yl)-2,6-difluorobenzyl)-1-(2-methoxyethyl)-1H-benzo[d]imidazole-6-carboxylic acid]	3.83	1000
COCCn1c(Cc2c(F)cc(-c3cccc4c3OC(c3ccc(C#N)cc3F)O4)cc2F)nc2ccc(C(=O)O)cc21 (single isomer, unassigned) [Example 38, 2-(4-(2-(4-cyano-2-fluorophenyl)benzo [d][1,3]dioxol-4-yl)-2,6-difluorobenzyl)-1-(2-methoxyethyl)-1H-benzo[d]imidazole-6-carboxylic acid]	4	37
COCCn1c(Cc2cc(F)c(-c3cccc4c3OC(c3ccc(C#N)cc3F)O4)cc2F)nc2ccc(C(=O)O)cc21 (single isomer, unassigned) [Example 39, 2-(4-(2-(4-cyano-2-fluorophenyl)benzo [d][1,3]dioxol-4-yl)-2,5-difluorobenzyl)-1-(2-methoxyethyl)-1H-benzo[d]imidazole-6-carboxylic acid]	3.17	49
COCCn1c(Cc2cc(F)c(-c3cccc4c3OC(c3ccc(C#N)cc3F)O4)cc2F)nc2ccc(C(=O)O)cc21 (single isomer, unassigned) [Example 40, 2-(4-(2-(4-cyano-2-fluorophenyl)benzo [d][1,3]dioxol-4-yl)-2,5-difluorobenzyl)-1-(2-methoxyethyl)-1H-benzo[d]imidazole-6-carboxylic acid]	5	1230
N#Cc1ccc(C2Oc3cccc(-c4cc(F)c(Cc5nc6ccc(C(=O)O)cc6n5C[C@@H]5CCO5)c(F)c4)c3O2)c(F)c1 (single isomer, unassigned) [Example 41]	2.83	438
N#Cc1ccc(C2Oc3cccc(-c4cc(F)c(Cc5nc6ccc(C(=O)O)cc6n5C[C@@H]5CCO5)c(F)c4)c3O2)c(F)c1 (single isomer, unassigned) [Example 42]	3.83	1.1
CC1(c2ccc(Cl)cc2F)Oc2cccc(-c3cc(F)c(Cc4nc5ccc(C(=O)O)cc5n4C[C@@H]4CCO4)cc3F)c2O1 (single isomer, unassigned) [Example 43]	4.67	7.4
CC1(c2ccc(Cl)cc2F)Oc2cccc(-c3ccc(Cc4nc5ccc(C(=O)O)cc5n4CC4(n5ccnn5)CC4)c(F)c3)c2O1 (stereo not shown) [Example 51, 1-((1-(1H-1,2,3-triazol-1-yl)cyclopropyl)methyl)-2-(4-(2-(4-chloro-2-fluorophenyl)-2-methylbenzo[d][1, 3]dioxol-4-yl)-2-fluorobenzyl)-1H-benzo[d]imidazole-6-carboxylic acid]	2.5	
COCCn1c(Cc2cc(-c3cccc4c3OC(C)(c3ccc(Cl)cc3F)O4)cs2)nc2ccc(C(=O)O)cc21 (stereo not shown) [Example 59, 2-((4-(2-(4-chloro-2-fluorophenyl)-2-methylbenzo[d][1, 3]dioxol-4-yl)thiophen-2-yl)methyl)-1-(2-methoxyethyl)-1H-benzo[d]imidazole-6-carboxylic acid]		1620
CC1(c2ccc(Cl)cc2F)Oc2cccc(-c3cc(F)c(Cc4nc5ccc(C(=O)O)cc5n4CCS(C)(=O)=O)c(F)c3)c2O1 (stereo not shown) [Example 82, 2-[[4-[2-(4-chloro-2-fluoro-phenyl)-2-methyl-1,3-benzodioxol-4-yl]-2,6-difluoro-phenyl]methyl]-3-(2-methylsulfonylethyl) benzimidazole-5-carboxylic acid]		20
COCCn1c(Cc2cc(F)c(-c3cccc4c3OC(C)(c3ccc(Cl)cc3F)O4)cc2F)nc2ccc(C(=O)O)cc21 (stereo not shown) [Example 113, 2-[[4-[2-(4-chloro-2-fluoro-phenyl)-2-methyl-1,3-benzodioxol-4-yl]-2,5-difluoro-phenyl]methyl]-3-(2-methoxyethyl) benzimidazole-5-carboxylic acid]	5.83	
COCCn1c(Cc2cc(F)c(-c3cccc4c3OC(C)(c3ccc(Cl)cn3)O4)cc2F)nc2ccc(C(=O)O)cc21 (stereo not shown) [Example 114, 2-[[4-[2-(5-chloro-2-pyridyl)-2-methyl-1,3-benzodioxol-4-yl]-2,5-difluoro-phenyl]methyl]-3-(2-methoxyethyl) benzimidazole-5-carboxylic acid]	7.67	
